# Experimental data as given in PubChem BioAssay (NCI).
#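 All cell lines were grown in 96-well plates and treated with compound for 48 hours. Abbreviation: GI50, concentration required for 50% inhibition of growth. TGI: concentration producing complete growth inhibition.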
# Legend:
# Test in all cases: growth of human tumour cells (NCI), 48 h
# OVCAR-8 ovarian = system: OVCAR-8 ovarian
# RPMI-8226 leukemia = system: RPMI-8226 leukemia
# SNB-19 CNS = system: SNB-19 CNS
# SF-539 CNS = system: SF-539 CNS
# COLO 205 colon = system: COLO 205 colon
# NCI-H460 lung = system: NCI-H460 lung
# NCI-H522 lung = system: NCI-H522 lung
# SK-MEL-5 melanoma = system: SK-MEL-5 melanoma
# A498 renal = system: A498 renal
# NCI-H226 lung = system: NCI-H226 lung
SMILES,TGI (OVCAR-8 ovarian) [µM],TGI (RPMI-8226 leukemia) [µM],TGI (SNB-19 CNS) [µM],TGI (SF-539 CNS) [µM],TGI (COLO 205 colon) [µM],TGI (NCI-H460 lung) [µM],TGI (NCI-H522 lung) [µM],TGI (SK-MEL-5 melanoma) [µM],TGI (A498 renal) [µM],TGI (NCI-H226 lung) [µM],GI50 (NCI-H522 lung) [µM],GI50 (A498 renal) [µM]
COc1nc2nccc-2c2occn12,> 100,> 100,> 100,> 100,> 100,> 100,> 100,> 100,> 100,–,–,–
CCc1cc(O)c(Cl)c(C)c1Cl,40.6,42.3,95.6,34.8,41.4,33.7,37.6,33.3,28.2,–,–,–
COc1cccc(C2c3cc4c(cc3OC(O)(CO)C2C(=O)O)OCO4)c1 (centres undefined) (tested in a mixture with another compound),> 100,> 100,–,> 100,> 100,49,–,> 100,> 100,> 100,–,–
COc1ccc2oc3cccc(NCCN(C)C)c3c(=O)c2c1,23.7,33,28.9,28.1,19.1,21.2,–,30.9,33.8,32,–,–
CC(C)NC(=O)OCCS(=O)c1c(Cl)c(Cl)nn1C (centres undefined),–,> 100,> 100,> 100,44,> 100,41.1,> 100,> 100,> 100,–,–
CC(C)C1CC(O)O[C@@H]([C@@H](C)[C@H]2CC(=O)[C@@H]3[C@@H]4[C@@H](O)[C@H](O)[C@H]5[C@@H](O)[C@H](O)CC[C@]5(C)[C@H]4CC[C@]23C)C1 (some centres undefined),> 100,–,> 100,> 100,> 100,> 100,> 100,> 100,–,> 100,–,–
S=c1[nH]c2ccc(Br)cc2c(=S)n1-c1ccccc1,> 100,56.7,> 100,44.4,47.1,45.2,–,35.5,98.4,83.6,–,–
CCCCCCCCCc1cc(=O)c2ccc(O)cc2o1,> 100,> 100,> 100,> 100,> 100,> 100,> 100,> 100,–,> 100,–,–
COc1ccc2c3c(c(=O)n(C)c2c1OC)C=CC(C)(C)O3,> 100,29.3,> 100,> 100,40.2,–,> 100,30.1,71.7,80.9,–,–
CCC12CCCC(=O)N1C(CO)C(c1ccccc1)O2 (centres undefined),> 100,> 100,> 100,> 100,> 100,> 100,–,> 100,> 100,–,–,–
COc1cccc(C(=O)C2C(=O)N(C)CCc3ccccc32)c1OC (centres undefined),> 100,> 100,> 100,–,> 100,> 100,> 100,> 100,> 100,> 100,–,–
CC(=O)n1c2ccccc2c2nc3nc(Oc4ccc(C)cc4)c4ccccc4c3cc21,> 100,> 100,> 100,> 100,> 100,> 100,> 100,> 100,–,> 100,–,–
CCCCCCCCCCCC[n+]1ccc(CCCCCCCCC)cc1,–,–,–,–,–,–,2.19,–,2.37,–,0.695,1.02
